# From US20160250213A1, “FORMULATIONS OF AZAINDOLE COMPOUNDS” (priority 2013, published 2016)
# Where “and” joins values, the source holds several entries; their conditions need not be identical. Equal entries are not always repeated. Where two headings read alike, the source gives them in different places. Marks after values point to notes of the source that are not given here.
# Tests used:
# [1] = tested on: Influenza A/California/04/2009 (pndH1N1) virus; format: in vivo, BALB/c mice
# [2] = tested on: A/South Dakota/6/2007 (H1N1); test: microbe, parasite or virus in culture; format: cell-based; details: Influenza A virus, MDCK, read-out: Cell Protection Assay EC50 ± SD
# influenza A virus = format: in vivo, mice; details: mouse, in vivo
# A/Florida/3/2006 (H1N1) = test: microbe, parasite or virus in culture; format: cell-based; details: Influenza A virus, MDCK, read-out: Cell Protection Assay EC50 ± SD
# A/Denver/1/57 (H1N1) = test: microbe, parasite or virus in culture; format: cell-based; details: Influenza A virus, MDCK, read-out: Cell Protection Assay EC50 ± SD
# [3] = tested on: influenza A/Wisconsin/67/2005 (H3N2) challenge strain virus; format: in vivo, humans (healthy volunteers); details: for Viral Shedding by Tissue Culture, AUC, median: Days 1-7
# B/Russia/69 = test: microbe, parasite or virus in culture; format: cell-based; details: Influenza B virus, MDCK, read-out: Cell Protection Assay EC50 ± SD
# [4] = tested on: A/Virginia/ATCC3/2009 (H1N1); test: microbe, parasite or virus in culture; format: cell-based; details: Influenza A virus, MDCK, read-out: Cell Protection Assay EC50 ± SD
# influenza A = tested on: influenza A; set-up: species or system mice; details: mouse, in vivo
# A/Swine/1976/31 (H1N1) = test: microbe, parasite or virus in culture; format: cell-based; details: Influenza A virus, H1N1, MDCK, in Sus scrofa, read-out: Cell Protection Assay EC50 ± SD
# [5] = tested on: A/Swine/Iowa/15/30 (H1N1); test: microbe, parasite or virus in culture; format: cell-based; details: Influenza A virus, H1N1, MDCK, in Sus scrofa, read-out: Cell Protection Assay EC50 ± SD
# A/Aichi/2/68 (H3N2) = test: microbe, parasite or virus in culture; format: cell-based; details: Influenza A virus, MDCK, read-out: Cell Protection Assay EC50 ± SD
# B/Lee/40 = test: microbe, parasite or virus in culture; format: cell-based; details: Influenza B virus, MDCK, read-out: Cell Protection Assay EC50 ± SD
# [6] = tested on: A/Virginia/ATCC2/2009 (H1N1); test: microbe, parasite or virus in culture; format: cell-based; details: Influenza A virus, MDCK, read-out: Cell Protection Assay EC50 ± SD
# [7] = tested on: influenza A/PR/8/34 (5×10^3 TCID50); set-up: species or system mice; details: mouse, in vivo
# A/Mal/302/54 (H1N1) = test: microbe, parasite or virus in culture; format: cell-based; details: Influenza A virus, MDCK, read-out: Cell Protection Assay EC50 ± SD
# influenza virus = tested on: influenza virus; set-up: species or system mice; details: mouse, in vivo
# A/Missouri/3/2006 (H1N1) = test: microbe, parasite or virus in culture; format: cell-based; details: Influenza A virus, MDCK, read-out: Cell Protection Assay EC50 ± SD
# [8] = tested on: influenza A/Wisconsin/67/2005 (H3N2) challenge strain virus; format: in vivo, humans (healthy volunteers)
# A/Hong Kong/8/68 (H3N2) = test: microbe, parasite or virus in culture; format: cell-based; details: Influenza A virus, MDCK, read-out: Cell Protection Assay EC50 ± SD
# [9] = tested on: Influenza A/Victoria/3/75 (H3N2) virus; format: in vivo, BALB/c mice
# [10] = tested on: Influenza A/Vietnam/1203/2004 (H5N1) virus; set-up: species or system BALB/c mice; details: mouse, in vivo
# [11] = tested on: A/Chelyabinsk/1/2006 (H1N1); test: microbe, parasite or virus in culture; format: cell-based; details: Influenza A virus, MDCK, read-out: Cell Protection Assay EC50 ± SD
# [12] = 1 mg/kg p.o. twice a day for 10 days starting 2 hours prior to virus exposure
# [13] = 3 mg/kg p.o. twice a day for 10 days starting 2 hours prior to virus exposure
# [14] = 10 mg/kg p.o. twice a day for 10 days starting 2 hours prior to virus exposure
# [15] = 100 mg QD 5 days, FA set N = 12
# [16] = 400 mg QD 5 days, FA set N = 12
# [17] = 900 mg Day 1, 600 mg Days 2-5, FA set N = 14
# [18] = 1200 mg Day 1, 600 mg Days 2-5, FA set N = 14
# [19] = pooled Compound (1) dose groups, FA set N = 52
structure (smiles),measurement,setting,value
O=C(O)[C@H]1C2CCC(CC2)C1Nc1nc(-c2c[nH]c3ncc(F)cc23)ncc1F (stereo partly drawn) [Compound (1)],"Mean Lung Parameters (Day 6): Score (hemorrhage, 0 to 4)",[1]; [12],0.6
same,Mean Lung Parameters (Day 6): Virus Titer,[1]; [12],5.5 Log10 CCID50/g
same,Mean Lung Parameters (Day 6): Weight,[1]; [12],246 mg
same,"Mean Lung Parameters (Day 6): Score (hemorrhage, 0 to 4)",[1]; [13],0.0
same,Mean Lung Parameters (Day 6): Virus Titer,[1]; [13],3.1 Log10 CCID50/g
same,Mean Lung Parameters (Day 6): Weight,[1]; [13],123 mg
same,"Mean Lung Parameters (Day 6): Score (hemorrhage, 0 to 4)",[1]; [14],0.2
same,Mean Lung Parameters (Day 6): Virus Titer,[1]; [14],<2.6^d*** Log10 CCID50/g
same,Mean Lung Parameters (Day 6): Weight,[1]; [14],132 mg
same,EC50,[2],0.31 ± 0.25 nM
same,survival,influenza A virus,2/8
same,EC50,A/Florida/3/2006 (H1N1),0.92 ± 1.5 nM
same,EC50,A/Denver/1/57 (H1N1),0.42 ± 0.19 nM
same,"Viral Shedding by Tissue Culture, Duration, median",[3]; [15],0.96 days
same,"Viral Shedding by Tissue Culture, Peak, mean",[3]; [15],2.09 log10 TCID50/mL
same,"Viral Shedding by Tissue Culture, AUC, median",[3]; [15],1.25 log10 TCID50 mL*Day
same,"Viral Shedding by Tissue Culture, Duration, median",[3]; [16],1.60 days
same,"Viral Shedding by Tissue Culture, Peak, mean",[3]; [16],1.73 log10 TCID50/mL
same,"Viral Shedding by Tissue Culture, AUC, median",[3]; [16],0.70 log10 TCID50 mL*Day
same,"Viral Shedding by Tissue Culture, Duration, median",[3]; [17],2.71 days
same,"Viral Shedding by Tissue Culture, Peak, mean",[3]; [17],2.68 log10 TCID50/mL
same,"Viral Shedding by Tissue Culture, AUC, median",[3]; [17],3.20 log10 TCID50 mL*Day
same,"Viral Shedding by Tissue Culture, Duration, median",[3]; [18],0.00 days
same,"Viral Shedding by Tissue Culture, Peak, mean",[3]; [18],1.00 log10 TCID50/mL
same,"Viral Shedding by Tissue Culture, AUC, median",[3]; [18],0.35 log10 TCID50 mL*Day
same,"Viral Shedding by Tissue Culture, Duration, median",[3]; [19],0.71 days
same,"Viral Shedding by Tissue Culture, Peak, mean",[3]; [19],1.87 log10 TCID50/mL
same,"Viral Shedding by Tissue Culture, AUC, median",[3]; [19],0.65 log10 TCID50 mL*Day
same,EC50,B/Russia/69,> 10 nM
same,EC50,[4],1.9 ± 3.2 nM
same,Log10 Reduction vs. Vehicle,influenza A,−1.08 Log10
same,Log10 Reduction vs. Vehicle,influenza A; 3 mg/kg,−1.04 Log10
same,Lung Viral Titer,influenza A; 3 mg/kg,5.24 *** Log10 TCID50
same,Lung Viral Titer,influenza A; 10 mg/kg,5.20*** Log10 TCID50
same,Lung Viral Titer,influenza A; 30 mg/kg,3.95 Log10 TCID50 and 4.53*** Log10 TCID50
same,EC50,A/Swine/1976/31 (H1N1),0.47 ± 0.11 nM
same,EC50,[5],0.65 ± 0.082 nM
same,EC50,A/Aichi/2/68 (H3N2),1.4 ± 1.1 nM
same,EC50,B/Lee/40,> 10 nM
same,EC50,[6],1.9 ± 3 nM
same,Survival Rate,[7]; 0.1 mg/kg,12.5
same,Survival Rate,[7]; 0.3 mg/kg,44.4
same,Survival Rate,[7]; 1 mg/kg,100
same,EC50,A/Mal/302/54 (H1N1),0.57 ± 0.055 nM
same,half maximal reduction in lung titers,influenza virus,2-3 log
same,EC50,A/Missouri/3/2006 (H1N1),0.21 ± 0.06 nM
same,"Viral Shedding by qRT-PCR, AUC, median",[8]; [15],6.05 log10 copies/mL*Day
same,"Viral Shedding by qRT-PCR, Duration, median",[8]; [15],0.96 days
same,"Viral Shedding by qRT-PCR, AUC, median",[8]; [16],4.90 log10 copies/mL*Day
same,"Viral Shedding by qRT-PCR, Duration, median",[8]; [16],1.36 days
same,"Viral Shedding by qRT-PCR, AUC, median",[8]; [17],10.65 log10 copies/mL*Day
same,"Viral Shedding by qRT-PCR, Duration, median",[8]; [17],2.39 days
same,"Viral Shedding by qRT-PCR, AUC, median",[8]; [18],0.45 log10 copies/mL*Day
same,"Viral Shedding by qRT-PCR, Duration, median",[8]; [18],0.00 days
same,"Viral Shedding by qRT-PCR, AUC, median",[8]; [19],3.45 log10 copies/mL*Day
same,"Viral Shedding by qRT-PCR, Duration, median",[8]; [19],0.71 days
same,EC50,A/Hong Kong/8/68 (H3N2),0.6 ± 0.11 nM
same,MDD ± SD (mean day of death of mice that died on or before day 21),[9]; [12],9.8 ± 1.9
same,"Mean Lung Parameters (Day 6): Score (hemorrhage, 0 to 4)",[9]; [12],3.2 ± 0.3^e
same,Mean Lung Parameters (Day 6): Virus Titer,[9]; [12],7.3 ± 0.3 Log10 CCID50/g
same,Mean Lung Parameters (Day 6): Weight,[9]; [12],274 ± 49 mg
same,Survivors/Total,[9]; [12],4/10
same,"Mean Lung Parameters (Day 6): Score (hemorrhage, 0 to 4)",[9]; [13],3.3 ± 0.6^e
same,Mean Lung Parameters (Day 6): Virus Titer,[9]; [13],7.2 ± 0.2 Log10 CCID50/g
same,Mean Lung Parameters (Day 6): Weight,[9]; [13],260 ± 25 mg
same,"Mean Lung Parameters (Day 6): Score (hemorrhage, 0 to 4)",[9]; [14],0.1 ± 0.2^d
same,Mean Lung Parameters (Day 6): Virus Titer,[9]; [14],6.1 ± 0.5 Log10 CCID50/g
same,Mean Lung Parameters (Day 6): Weight,[9]; [14],164 ± 11 mg
same,MDD ± SD (mean day of death of mice that died on or before day 21),[10],>21
same,Mean Lung Parameters (Day 6): Virus Titer,[10],3.75 ± 0.94 Log 10 CCID50/g
same,Survivors/Total,[10],10/10
same,EC50,[11],0.7 ± 0.49 nM
